Measurements: US4863944A, “Dopamine-β-hydroxylase inhibitors” (SmithKline Beckman Corporation, priority 1988, dated 1989)
Structures can show the parent of a compound that is named as a salt. Blank lines part the entries; values can stand above or below the compound they belong to.

How the values were obtained:
DBH [1] = settings: treated patients; Friedman et al.; significance uncertain; cited from earlier work
[2] = target: T1, dopamine-β-hydroxylase (DBH) (Bos taurus, UniProt P15101); test: biochemical; settings: in vitro; tyramine to octopamine; absorbance at 330 nm; read-out: IC50 (molar concentration of compound at which DBH activity was halved)
T1 sequence (P15101 1-610): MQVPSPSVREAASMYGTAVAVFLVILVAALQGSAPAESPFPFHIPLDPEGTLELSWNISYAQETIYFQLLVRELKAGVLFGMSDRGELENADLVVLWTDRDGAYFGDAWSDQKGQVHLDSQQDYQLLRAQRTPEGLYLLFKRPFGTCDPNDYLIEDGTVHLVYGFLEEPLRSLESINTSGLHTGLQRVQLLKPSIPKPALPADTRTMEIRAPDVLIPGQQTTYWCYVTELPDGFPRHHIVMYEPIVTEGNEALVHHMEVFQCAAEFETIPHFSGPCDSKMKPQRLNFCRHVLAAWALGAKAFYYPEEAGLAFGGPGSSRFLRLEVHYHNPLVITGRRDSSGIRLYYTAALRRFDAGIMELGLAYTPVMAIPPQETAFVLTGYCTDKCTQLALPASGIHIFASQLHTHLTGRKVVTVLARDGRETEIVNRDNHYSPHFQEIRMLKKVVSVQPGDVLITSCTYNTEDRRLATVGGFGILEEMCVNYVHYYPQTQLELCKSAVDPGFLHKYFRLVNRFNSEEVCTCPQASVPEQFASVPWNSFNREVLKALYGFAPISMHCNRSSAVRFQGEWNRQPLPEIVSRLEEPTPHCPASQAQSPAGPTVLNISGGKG
Procedure: Octopamine was assayed following sodium periodate oxidation to p-hydroxybenzaldehyde by measuring spectrophotometric absorbance at 330 nm. […] Melting points (mp) are given in °C.

[3] = system: spontaneously hypertensive rats; test: in vivo activity in spontaneously hypertensive rats: electrolyte excretion, urine volume, systolic blood pressure, heart rate; set-up: species or system rats (Okamoto-Aoki strain spontaneously hypertensive); settings: for Heart Rate 1st dose / Systolic Blood Pressure 1st dose: after 1st dose; for Heart Rate 1st dose / Systolic Blood Pressure 1st dose / Heart Rate 2nd dose / Systolic Blood Pressure 2nd dose: tail-cuff; for Heart Rate 2nd dose / Systolic Blood Pressure 2nd dose: two hours after 2nd dose; for Electrolytes Excreted K^+ / Electrolytes Excreted Na^+ / Urine Volume: urine collected for three hours
Source text: The following procedure was used to test, for in vivo activity, compounds which can be used to inhibit DBH activity in mammals, including certain illustrative compounds of the invention. The compounds wherein R is --CO2 H or --CH2 NHC6 H5, X is --H, Y is --H and n is 1 are not compounds of the invention but can be used in the method of the invention.
Male, Okamoto-Aoki strain spontaneously hypertensive rats, aged 16-20 weeks, were used for testing. The afternoon before testing, the animals were fasted and the following morning the first dose of the test compound was administered, p.o., along with a 25 ml/kg load of normal saline. The animals were then placed in metabolism cages, three per cage, and urine was collected for three hours and subsequently analyzed for sodium, potassium, and creatinine. Indirect systolic blood pressure and heart rate were measured via a tail-cuff method and the animals received an identical second does of the test compound. Two hours after the second dose, the systolic blood pressure and heart rate were again determined. Drugs were administered as a solution or suspension in normal saline with 0.02% ascorbic acid.
Three rats weighing 270-320 g were used. Each received two intraperitoneal injections, in a 24 hour period, of a dose volume of 5 mL and a dose concentration of 50 mg/kg or 25 mg/kg, in 0.9% NaCl, following a 24 hour pretreatment dose. Averaged results with control animals, three per experiment, are reported in parentheses below results of test animals.

DBH [4] = settings: cited from earlier work; for DBH inhibition / mode of DBH inhibition: result in words
[5] = result in words; cited from earlier work
[6] = at certain concentrations; Ehrreich et al.; cited from earlier work
[7] = result in words; Teresawa et al.; cited from earlier work

Compound: CC(C)NCC(O)COc1cccc2ccccc12 (racemic) [propanolanol]
DBH levels (DBH [1]): not

IC50 [2]: > 100 µM
Compound: Br.Br.Oc1ccc(Cn2ccnc2CNc2ccccc2)cc1 [1-(4-hydroxybenzyl)-2-phenylaminomethyl imidazole dihydrobromide]
Na^+ /K^+ ratio ([3]; dose = 50 mg/kg): 2.927
Heart Rate 1st dose ([3]; dose = 50 mg/kg): 440 beats/min
Systolic Blood Pressure 1st dose ([3]; dose = 50 mg/kg): 181 mmHg
Heart Rate 2nd dose ([3]; dose = 50 mg/kg): 480 beats/min
Systolic Blood Pressure 2nd dose ([3]; dose = 50 mg/kg): 175 mmHg
Electrolytes Excreted K^+ ([3]; dose = 50 mg/kg): 74.27 μEq/rat
Electrolytes Excreted Na^+ ([3]; dose = 50 mg/kg): 217.36 μEq/rat
Urine Volume ([3]; dose = 50 mg/kg): 3 ml/rat
in vivo activity as cardiotonic ([3]; result in words): significant cardiotonic activity

IC50 [2]: 100 µM
Compound: c1ccc(CNCc2nccn2Cc2ccccc2)cc1 [1-benzyl-2-benzylaminomethyl imidazole dihydrochloride]

Compound: O=C(O)c1ccc(CCC(Br)CBr)cn1 (centres unmarked) [5-(3,4-dibromo)butyl picolinic acid]
DBH inhibition (DBH [4]): DBH inhibitors

Compound: O=C(O)c1ccc(CCCCCl)cn1 [5-(4-chlorobutyl)picolinic acid]
DBH inhibition (DBH [4]): can inhibit DBH

Compound: CN(C)C(=S)SCc1ccc(C(=O)O)nc1 [5-(dimethyldithiocarbamoyl)methyl picolinic acid]
DBH inhibition (DBH [4]): DBH inhibitors

Compound: NOCc1ccccc1 [Benzyloxyamine, benzyloxyamine]
mode of DBH inhibition (DBH [4]): apparently act as competitive inhibitors

Compound: CCCCc1ccc(C(N)=O)nc1 [Bupicomide, 5-(n-butyl)picolinamide]
DBH inhibition (DBH [4]): DBH inhibitor
antihypertensive activity [5]: antihypertensive activity

Compound: NCCc1ccc(O)c(O)c1 [DA, dopamine]
vasodilator activity [6]: selective vasodilator activity at certain concentrations

Compound: CCCCc1ccc(C(=O)O)nc1 [Fusaric acid]
hepatotoxicity [7]: hepatotoxic

IC50 [2]: 35 µM
Compound: Br.Br.NCc1nccn1Cc1ccc(O)cc1 [R = CH2 NH2.2HBr, Y = OH, X = H, n = 1, 1-(4-hydroxybenzyl)-2-aminomethyl imidazole dihydrobromide]
Na^+ /K^+ ratio ([3]; dose = 25 mg/kg): 2.159
Heart Rate 1st dose ([3]; dose = 25 mg/kg): 420 beats/min
Systolic Blood Pressure 1st dose ([3]; dose = 25 mg/kg): 161 mmHg
Heart Rate 2nd dose ([3]; dose = 25 mg/kg): 440 beats/min
Systolic Blood Pressure 2nd dose ([3]; dose = 25 mg/kg): 158 mmHg
Electrolytes Excreted K^+ ([3]; dose = 25 mg/kg): 103.42 μEq/rat
Electrolytes Excreted Na^+ ([3]; dose = 25 mg/kg): 223.24 μEq/rat
Urine Volume ([3]; dose = 25 mg/kg): 3 ml/rat
in vivo activity as antihypertensive ([3]; result in words): significant antihypertensive activity

Compound: NCc1nccn1Cc1ccccc1 [R = CH2 NH2.2HCl, Y = H, X = H, n = 1, 1-benzyl-2-aminomethyl imidazole dihydrochloride]
IC50 [2]: 240 µM

IC50 [2]: 70 µM
Compound: O=C(O)c1nccn1CCCc1ccc(O)cc1 [R = CO2 H.1/2 H2 O, Y = OH, X = H, n = 3, 1-[3-(4-hydroxyphenyl)propyl]imidazole-2-carboxylic acid, hemihydrate]
Na^+ /K^+ ratio ([3]; dose = 25 mg/kg): 1.313
Heart Rate 1st dose ([3]; dose = 25 mg/kg): 400 beats/min
Systolic Blood Pressure 1st dose ([3]; dose = 25 mg/kg): 176 mmHg
Heart Rate 2nd dose ([3]; dose = 25 mg/kg): 440 beats/min
Systolic Blood Pressure 2nd dose ([3]; dose = 25 mg/kg): 173 mmHg
Electrolytes Excreted K^+ ([3]; dose = 25 mg/kg): 152.18 μEq/rat
Electrolytes Excreted Na^+ ([3]; dose = 25 mg/kg): 199.74 μEq/rat
Urine Volume ([3]; dose = 25 mg/kg): 6 ml/rat
in vivo activity as diuretic ([3]; result in words): significant diuretic activity

IC50 [2]: 11 µM
Compound: O=C(O)c1nccn1Cc1ccccc1 [R = CO2 H.HCl, Y = H, X = H, n = 1]
Na^+ /K^+ ratio ([3]; dose = 50 mg/kg): 1.270
Heart Rate 1st dose ([3]; dose = 50 mg/kg): 440 beats/min
Systolic Blood Pressure 1st dose ([3]; dose = 50 mg/kg): 211 mmHg
Heart Rate 2nd dose ([3]; dose = 50 mg/kg): 480 beats/min
Systolic Blood Pressure 2nd dose ([3]; dose = 50 mg/kg): 185 mmHg
Electrolytes Excreted K^+ ([3]; dose = 50 mg/kg): 214.52 μEq/rat
Electrolytes Excreted Na^+ ([3]; dose = 50 mg/kg): 272.54 μEq/rat
Urine Volume ([3]; dose = 50 mg/kg): 15 ml/rat
in vivo activity as antihypertensive ([3]; result in words): significant in vivo activity
in vivo activity as cardiotonic ([3]; result in words): significant in vivo activity
in vivo activity as diuretic ([3]; result in words): significant in vivo activity
in vivo activity as natriuretic ([3]; result in words): significant in vivo activity

IC50 [2]: 75 µM
Compound: COc1ccc(Cn2ccnc2C(=O)O)cc1 [R = CO2 H.HCl, Y = OCH3, X = H, n = 1, 1-(4-methoxybenzyl)imidazole-2-carboxylic acid hydrochloride]

IC50 [2]: 95 µM
Compound: COc1ccc(CCCn2ccnc2C(=O)O)cc1 [R = CO2 H.HCl, Y = OCH3, X = H, n = 3, 1-[3-(4-methoxyphenyl)propyl]imidazole-2-carboxylic acid hydrochloride]

IC50 [2]: 90 µM
Compound: O=C(O)c1nccn1Cc1ccc(O)cc1 [R = CO2 H.HCl, Y = OH, X = H, n = 1, hydrochloride hydrate]

Compound: CC(N)(Cc1ccc(O)c(O)c1)C(=O)O (stereo not drawn) [alpha-methyl-DOPA]
DBH levels (DBH [1]): lowered DBH levels

Compound: NNCc1ccccc1 [benzylhydrazine]
mode of DBH inhibition (DBH [4]): apparently act as competitive inhibitors

Compound: O=C(O)c1ccc(Cc2ccc(O)cc2)cn1 [phenopicolinic acid]
DBH inhibitory activity relative to fusaric acid (DBH [4]; Runti et al.): twice the inhibitory activity of fusaric acid
DBH inhibition (DBH [4]): can inhibit DBH

Compound: COC(=O)[C@H]1[C@H]2C[C@@H]3c4[nH]c5cc(OC)ccc5c4CCN3C[C@H]2C[C@@H](OC(=O)c2cc(OC)c(OC)c(OC)c2)[C@@H]1OC [reserpine]
DBH levels (DBH [1]): lowered DBH levels
